Data published in the NIST ThermoML archive (doi:10.1016/j.fluid.2014.06.024).
Numbers after ± are expanded uncertainties.

Legend:
[1] = molar heat capacity at constant pressure; details: 101.33 kPa, Liquid, Small sample (50 mg) DSC
[2] = 101.33 kPa, Liquid; for speed of sound: Sing-around technique in a fixed-path interferometer; for mass density: Vibrating tube method

Row | Compound | molar heat capacity at constant pressure ([1]; 298.15 K) [J/K/mol] | molar heat capacity at constant pressure ([1]; 303.15 K) [J/K/mol] | molar heat capacity at constant pressure ([1]; 308.15 K) [J/K/mol] | speed of sound ([2]; 298.15 K) [m/s] | mass density ([2]; 298.15 K) [kg/m3] | speed of sound ([2]; 303.15 K) [m/s] | mass density ([2]; 303.15 K) [kg/m3] | speed of sound ([2]; 308.15 K) [m/s] | mass density ([2]; 308.15 K) [kg/m3]
1 | Cc1ccccc1C [1,2-dimethylbenzene] | 187.55 ± 2.9 | 189.11 ± 2.9 | 190.62 ± 3 | 1346.2 ± 0.8 | 875.91 ± 1 | 1326.2 ± 0.8 | 871.7 ± 1 | 1306.1 ± 0.8 | 867.48 ± 1
2 | C1CCOCC1 [tetrahydropyran] | 149.62 ± 2.3 | 151.22 ± 2.3 | 153.08 ± 2.4 | 1269.8 ± 0.9 | 879.13 ± 1 | 1246.8 ± 0.9 | 873.99 ± 1 | 1224.4 ± 0.9 | 868.83 ± 1
3 | Cc1ccccc1 [toluene] | 157.18 ± 2.4 | 158.61 ± 2.5 | 160.09 ± 2.5 | 1304.6 ± 1 | 862.18 ± 1 | 1283.2 ± 1 | 857.51 ± 1 | 1261.8 ± 1 | 852.82 ± 1
4 | c1ccccc1 [benzene] | 135.18 ± 2.1 | 136.4 ± 2.1 | 137.61 ± 2.1 | 1299.4 ± 0.8 | 873.54 ± 1 | 1276.1 ± 0.82 | 868.2 ± 1 | 1252.9 ± 0.82 | 862.84 ± 1
5 | Cc1ccccc1Cl [2-chlorotoluene] | 178.21 ± 2.8 | 180.01 ± 2.8 | 181.71 ± 2.8 | 1298.7 ± 1 | 1077.3 ± 1 | 1280.7 ± 1 | 1072.5 ± 1 | 1262.7 ± 1 | 1067.6 ± 1
